Laboratory results taken from ChEMBL document CHEMBL4725219, “Identification and in silico prediction of metabolites of tebufenozide derivatives by major human cytochrome P450 isoforms” (Bioorg Med Chem, 2020).

What was measured:
[1] = Drug metabolism in recombinant Saccharomyces cerevisiae AH22 cells expressing human CYP3A4/CYP2C9 assessed as CYP-mediated hydroxylation at CH3-isopropyl group of B ring by measuring retention time of the metabolite at 100 uM incubated for 24 hrs by HPLC analysis; format: ADME
[2] = Drug metabolism in recombinant Saccharomyces cerevisiae AH22 cells expressing human CYP3A4/CYP2C9 assessed as CYP-mediated hydroxylation at CH-isopropyl group of B-ring by measuring retention time of the metabolite at 100 uM incubated for 24 hrs by HPLC analysis; format: ADME
[3] = Drug metabolism in recombinant Saccharomyces cerevisiae AH22 cells expressing human CYP3A4/CYP2C9 assessed as CYP-mediated hydroxylation at methyl group of A-ring by measuring retention time of the metabolite at 100 uM incubated for 24 hrs by HPLC analysis; format: ADME
Cytochrome P450 1A2 = target: T1, Cytochrome P450 1A2 (Homo sapiens, UniProt P05177); experiment: Drug metabolism in microsomes containing baculovirus expressing human CYP1A2 assessed as CYP1A2-mediated hydroxylation by LC/MS/MS analysis; format: ADME, Microsome
T1 sequence (P05177 whole entry): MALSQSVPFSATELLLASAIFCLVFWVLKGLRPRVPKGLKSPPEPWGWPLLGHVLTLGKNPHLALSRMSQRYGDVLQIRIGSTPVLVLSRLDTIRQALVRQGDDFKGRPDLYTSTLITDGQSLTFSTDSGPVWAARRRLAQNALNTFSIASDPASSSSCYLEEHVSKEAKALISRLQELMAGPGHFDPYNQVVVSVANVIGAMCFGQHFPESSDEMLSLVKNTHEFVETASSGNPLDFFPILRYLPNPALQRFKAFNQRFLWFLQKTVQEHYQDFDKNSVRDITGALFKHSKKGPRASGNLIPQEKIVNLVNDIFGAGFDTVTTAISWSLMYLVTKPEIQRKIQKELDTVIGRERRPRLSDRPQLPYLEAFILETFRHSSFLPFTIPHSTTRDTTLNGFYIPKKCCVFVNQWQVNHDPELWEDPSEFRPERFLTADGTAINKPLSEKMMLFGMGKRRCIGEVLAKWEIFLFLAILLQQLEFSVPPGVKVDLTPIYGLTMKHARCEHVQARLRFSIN

Cytochrome P450 2D6 = Cytochrome P450 2D6 (Homo sapiens, UniProt P10635); experiment: Drug metabolism in microsomes containing baculovirus expressing human CYP2D6 assessed as CYP2D6-mediated hydroxylation at methyl group of A-ring by LC/MS/MS analysis relative to control; format: ADME, Microsome
Cytochrome P450 2C9 = Cytochrome P450 2C9 (Homo sapiens, UniProt P11712); experiment: Drug metabolism in microsomes containing baculovirus expressing human CYP2C9 assessed as CYP2C9-mediated hydroxylation at methyl group of A-ring by LC/MS/MS analysis relative to control; format: ADME, Microsome
Cytochrome P450 3A4 [4] = target: T2, Cytochrome P450 3A4 (Homo sapiens, UniProt P08684); experiment: Drug metabolism in recombinant Saccharomyces cerevisiae AH22 cells expressing human CYP3A4 assessed as CYP3A4-mediated hydroxylation at methyl group of B-ring by measuring retention time of the metabolite at 39 uM incubated for 24 hrs by HPLC analysis; format: ADME; conditions: recombinant enzyme
Cytochrome P450 3A4 [5] = target: T2, Cytochrome P450 3A4; experiment: Drug metabolism in recombinant Saccharomyces cerevisiae AH22 cells expressing human CYP3A4 assessed as CYP3A4-mediated hydroxylation at methyl group of A-ring by measuring retention time of the metabolite at 39 uM incubated for 24 hrs by HPLC analysis; format: ADME; conditions: recombinant enzyme
Cytochrome P450 3A4 [6] = target: T2, Cytochrome P450 3A4; experiment: Drug metabolism in recombinant Saccharomyces cerevisiae AH22 cells expressing human CYP3A4 assessed as CYP3A4-mediated hydroxylation at t-butyl group by measuring retention time of the metabolite at 39 uM incubated for 24 hrs by HPLC analysis; format: ADME; conditions: recombinant enzyme

T2 sequence (P08684 whole entry): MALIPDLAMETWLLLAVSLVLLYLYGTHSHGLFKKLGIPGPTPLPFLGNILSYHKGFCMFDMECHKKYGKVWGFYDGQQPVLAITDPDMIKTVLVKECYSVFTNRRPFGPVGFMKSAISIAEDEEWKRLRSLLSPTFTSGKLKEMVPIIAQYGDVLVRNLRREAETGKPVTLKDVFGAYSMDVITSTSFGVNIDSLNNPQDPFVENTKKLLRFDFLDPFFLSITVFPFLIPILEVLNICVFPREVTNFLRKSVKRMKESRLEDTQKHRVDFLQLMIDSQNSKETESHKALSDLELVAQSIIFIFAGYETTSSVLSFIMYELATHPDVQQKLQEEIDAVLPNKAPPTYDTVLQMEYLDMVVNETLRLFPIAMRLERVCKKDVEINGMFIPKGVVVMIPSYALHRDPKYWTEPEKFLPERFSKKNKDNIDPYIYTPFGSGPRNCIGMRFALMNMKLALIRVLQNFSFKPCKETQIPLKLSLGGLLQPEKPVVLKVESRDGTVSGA
Sequence of Cytochrome P450 2D6 (P10635 whole entry): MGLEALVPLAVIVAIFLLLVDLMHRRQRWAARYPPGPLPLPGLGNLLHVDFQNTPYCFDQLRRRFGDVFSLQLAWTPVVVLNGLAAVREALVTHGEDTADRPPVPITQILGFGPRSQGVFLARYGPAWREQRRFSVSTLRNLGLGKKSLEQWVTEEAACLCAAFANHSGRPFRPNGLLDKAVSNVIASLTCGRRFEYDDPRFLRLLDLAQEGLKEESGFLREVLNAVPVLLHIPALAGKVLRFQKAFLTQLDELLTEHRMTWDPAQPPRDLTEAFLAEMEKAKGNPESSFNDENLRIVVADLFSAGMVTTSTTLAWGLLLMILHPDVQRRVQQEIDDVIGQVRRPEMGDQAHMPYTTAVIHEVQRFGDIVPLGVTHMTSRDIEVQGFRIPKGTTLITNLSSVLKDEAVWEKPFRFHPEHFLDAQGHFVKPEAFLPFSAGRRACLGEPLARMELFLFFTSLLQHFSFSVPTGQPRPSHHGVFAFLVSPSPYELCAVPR
Sequence of Cytochrome P450 2C9 (P11712 whole entry): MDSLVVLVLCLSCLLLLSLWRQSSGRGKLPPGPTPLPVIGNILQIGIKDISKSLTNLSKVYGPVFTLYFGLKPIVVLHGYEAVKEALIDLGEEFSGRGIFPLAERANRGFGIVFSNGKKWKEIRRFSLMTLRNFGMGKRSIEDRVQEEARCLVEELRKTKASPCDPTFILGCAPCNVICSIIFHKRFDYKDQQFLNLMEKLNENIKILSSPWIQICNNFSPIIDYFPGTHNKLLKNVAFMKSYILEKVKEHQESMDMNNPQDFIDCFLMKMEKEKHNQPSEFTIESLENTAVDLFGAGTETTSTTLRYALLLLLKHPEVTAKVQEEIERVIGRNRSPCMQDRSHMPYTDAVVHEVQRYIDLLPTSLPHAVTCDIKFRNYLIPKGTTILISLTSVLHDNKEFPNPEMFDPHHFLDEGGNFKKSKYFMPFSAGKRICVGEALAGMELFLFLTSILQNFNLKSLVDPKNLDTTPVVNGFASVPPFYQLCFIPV

SMILES	Retention_time [1]	Retention_time [2]	Retention_time [3]	Drug metabolism (Cytochrome P450 1A2)	Drug metabolism (Cytochrome P450 2D6)	Drug metabolism (Cytochrome P450 2C9)	Retention_time (Cytochrome P450 3A4 [4])	Retention_time (Cytochrome P450 3A4 [5])	Retention_time (Cytochrome P450 3A4 [6])
Cc1cc(C)cc(C(=O)N(NC(=O)c2ccc(C(C)C)cc2)C(C)(C)C)c1	12 min	13.9 min	17.7 min	Metabolite_Notdetected					
Cc1cc(C)cc(C(=O)N(NC(=O)c2ccccc2C)C(C)(C)C)c1				Metabolite_Notdetected					
Cc1cccc(C(=O)NN(C(=O)c2cc(C)cc(C)c2)C(C)(C)C)c1				Metabolite_Notdetected	Metabolite_Detected	Metabolite_Detected	16.1 min	17.4 min	16.1 min
